Assay results taken from patent US20080171350A1, “Neural Cell Differentiation Method From Es Cells” (NOVARTIS FORSCHUNGSSTIFTUNG, ZWEIGNIEDERLASSUNG FRIEDRICH …, priority 2004, published 2008).

Tested on: ES cells-derived neurons
Test: Whole-cell patch-clamp recordings on ES cells-derived neurons
Assay type: cell-based, mouse
Details: cells in culture for 10 and up to 22 days

NS(=O)(=O)c1cccc2c1c([N+](=O)[O-])cc1nc(O)c(O)nc12 [NBQX]
block of spontaneous synaptic currents (SSCs): blocking of synaptic currents
